ChEMBL document CHEMBL3886912, “Imidazo[4,5-c]quinolin-2-one compounds and their use in treating Cancer” (2016)
pIC50: −log10 of the molar value.

Tests used:
[1] = target: Serine/threonine-protein kinase ATR (Homo sapiens, UniProt Q13535); assay: Cellular Assay: Assay b) HT29 cells (ECACC #85061109) were seeded into 384 well assay plates (Costar #3712) at a density of 6000 cells/well in 40 μl EMEM medium containing 1% L glutamine and 10% FBS and allowed to adhere overnight. The following morning compound of Formula (I) in 100% DMSO was added to assay plates by acoustic dispensing. After 1 h incubation at 37° C. and 5% CO2, 40 nl of 3 mM 4NQO in 100% DMSO was added to all wells by acoustic dispensing, except minimum control wells which were left untreated with 4NQO to generate a null response control. Plates were returned to the incubator for a further 1 h. Then cells were fixed by adding 20 μl of 3.7% formaldehyde in PBS solution and incubating for 20 mins at r.t. Then 20 μl of 0.1% Triton X100 in PBS was added and incubated for 10 minutes at r.t., to permeabalise cells. Then the plates were washed once with 50 μl/well PBS, using a Biotek EL405 plate washer. Phospho-Chk1 Ser 345 antibody (Cell Signalling Technology #2348) was diluted 150 fold in PBS containing 0.05% polysorbate/Tween and 15 μl was added to each well and incubated over night at r.t. The next morning plates were washed three times with 50 μl/well PBS, using a Biotek EL405 plate washer, and then 20 μl of secondary Ab solution, containing 500 fold diluted Alexa Fluor 488 Goat anti-rabbit IgG (Molecular Probes #A-11008) and 0.002 mg/ml Hoeschst dye (Molecular Probes #H-3570), in PBST, was added. After 2 h incubation at r.t., the plates were washed three times with 50 μl/well PBS, using a Biotek EL405 plate washer, and plates were then sealed with black plate seals until read. Plates were read using an ArrayScan VTI instrument, using an XF53 filter with 10× objective. A two laser set up was used to analyse nuclear staining with Hoeschst (405 nm) and secondary antibody staining of pChk1 (488 nm).; assay type: cell-based, HT-29
[2] = target: Serine-protein kinase ATM (Homo sapiens, UniProt Q13315); assay: Cellular Assay: Assay a) HT29 cells (ECACC #85061109) were seeded into 384 well assay plates (Costar #3712) at a density of 3500 cells/well in 40 μl EMEM medium containing 1% L glutamine and 10% FBS and allowed to adhere overnight. The following morning compounds of Formula (I) in 100% DMSO were added to assay plates by acoustic dispensing. After 1 h incubation at 37° C. and 5% CO2 plates (up to …; assay type: cell-based, HT-29
Chain of Serine-protein kinase ATM (Q13315 whole entry): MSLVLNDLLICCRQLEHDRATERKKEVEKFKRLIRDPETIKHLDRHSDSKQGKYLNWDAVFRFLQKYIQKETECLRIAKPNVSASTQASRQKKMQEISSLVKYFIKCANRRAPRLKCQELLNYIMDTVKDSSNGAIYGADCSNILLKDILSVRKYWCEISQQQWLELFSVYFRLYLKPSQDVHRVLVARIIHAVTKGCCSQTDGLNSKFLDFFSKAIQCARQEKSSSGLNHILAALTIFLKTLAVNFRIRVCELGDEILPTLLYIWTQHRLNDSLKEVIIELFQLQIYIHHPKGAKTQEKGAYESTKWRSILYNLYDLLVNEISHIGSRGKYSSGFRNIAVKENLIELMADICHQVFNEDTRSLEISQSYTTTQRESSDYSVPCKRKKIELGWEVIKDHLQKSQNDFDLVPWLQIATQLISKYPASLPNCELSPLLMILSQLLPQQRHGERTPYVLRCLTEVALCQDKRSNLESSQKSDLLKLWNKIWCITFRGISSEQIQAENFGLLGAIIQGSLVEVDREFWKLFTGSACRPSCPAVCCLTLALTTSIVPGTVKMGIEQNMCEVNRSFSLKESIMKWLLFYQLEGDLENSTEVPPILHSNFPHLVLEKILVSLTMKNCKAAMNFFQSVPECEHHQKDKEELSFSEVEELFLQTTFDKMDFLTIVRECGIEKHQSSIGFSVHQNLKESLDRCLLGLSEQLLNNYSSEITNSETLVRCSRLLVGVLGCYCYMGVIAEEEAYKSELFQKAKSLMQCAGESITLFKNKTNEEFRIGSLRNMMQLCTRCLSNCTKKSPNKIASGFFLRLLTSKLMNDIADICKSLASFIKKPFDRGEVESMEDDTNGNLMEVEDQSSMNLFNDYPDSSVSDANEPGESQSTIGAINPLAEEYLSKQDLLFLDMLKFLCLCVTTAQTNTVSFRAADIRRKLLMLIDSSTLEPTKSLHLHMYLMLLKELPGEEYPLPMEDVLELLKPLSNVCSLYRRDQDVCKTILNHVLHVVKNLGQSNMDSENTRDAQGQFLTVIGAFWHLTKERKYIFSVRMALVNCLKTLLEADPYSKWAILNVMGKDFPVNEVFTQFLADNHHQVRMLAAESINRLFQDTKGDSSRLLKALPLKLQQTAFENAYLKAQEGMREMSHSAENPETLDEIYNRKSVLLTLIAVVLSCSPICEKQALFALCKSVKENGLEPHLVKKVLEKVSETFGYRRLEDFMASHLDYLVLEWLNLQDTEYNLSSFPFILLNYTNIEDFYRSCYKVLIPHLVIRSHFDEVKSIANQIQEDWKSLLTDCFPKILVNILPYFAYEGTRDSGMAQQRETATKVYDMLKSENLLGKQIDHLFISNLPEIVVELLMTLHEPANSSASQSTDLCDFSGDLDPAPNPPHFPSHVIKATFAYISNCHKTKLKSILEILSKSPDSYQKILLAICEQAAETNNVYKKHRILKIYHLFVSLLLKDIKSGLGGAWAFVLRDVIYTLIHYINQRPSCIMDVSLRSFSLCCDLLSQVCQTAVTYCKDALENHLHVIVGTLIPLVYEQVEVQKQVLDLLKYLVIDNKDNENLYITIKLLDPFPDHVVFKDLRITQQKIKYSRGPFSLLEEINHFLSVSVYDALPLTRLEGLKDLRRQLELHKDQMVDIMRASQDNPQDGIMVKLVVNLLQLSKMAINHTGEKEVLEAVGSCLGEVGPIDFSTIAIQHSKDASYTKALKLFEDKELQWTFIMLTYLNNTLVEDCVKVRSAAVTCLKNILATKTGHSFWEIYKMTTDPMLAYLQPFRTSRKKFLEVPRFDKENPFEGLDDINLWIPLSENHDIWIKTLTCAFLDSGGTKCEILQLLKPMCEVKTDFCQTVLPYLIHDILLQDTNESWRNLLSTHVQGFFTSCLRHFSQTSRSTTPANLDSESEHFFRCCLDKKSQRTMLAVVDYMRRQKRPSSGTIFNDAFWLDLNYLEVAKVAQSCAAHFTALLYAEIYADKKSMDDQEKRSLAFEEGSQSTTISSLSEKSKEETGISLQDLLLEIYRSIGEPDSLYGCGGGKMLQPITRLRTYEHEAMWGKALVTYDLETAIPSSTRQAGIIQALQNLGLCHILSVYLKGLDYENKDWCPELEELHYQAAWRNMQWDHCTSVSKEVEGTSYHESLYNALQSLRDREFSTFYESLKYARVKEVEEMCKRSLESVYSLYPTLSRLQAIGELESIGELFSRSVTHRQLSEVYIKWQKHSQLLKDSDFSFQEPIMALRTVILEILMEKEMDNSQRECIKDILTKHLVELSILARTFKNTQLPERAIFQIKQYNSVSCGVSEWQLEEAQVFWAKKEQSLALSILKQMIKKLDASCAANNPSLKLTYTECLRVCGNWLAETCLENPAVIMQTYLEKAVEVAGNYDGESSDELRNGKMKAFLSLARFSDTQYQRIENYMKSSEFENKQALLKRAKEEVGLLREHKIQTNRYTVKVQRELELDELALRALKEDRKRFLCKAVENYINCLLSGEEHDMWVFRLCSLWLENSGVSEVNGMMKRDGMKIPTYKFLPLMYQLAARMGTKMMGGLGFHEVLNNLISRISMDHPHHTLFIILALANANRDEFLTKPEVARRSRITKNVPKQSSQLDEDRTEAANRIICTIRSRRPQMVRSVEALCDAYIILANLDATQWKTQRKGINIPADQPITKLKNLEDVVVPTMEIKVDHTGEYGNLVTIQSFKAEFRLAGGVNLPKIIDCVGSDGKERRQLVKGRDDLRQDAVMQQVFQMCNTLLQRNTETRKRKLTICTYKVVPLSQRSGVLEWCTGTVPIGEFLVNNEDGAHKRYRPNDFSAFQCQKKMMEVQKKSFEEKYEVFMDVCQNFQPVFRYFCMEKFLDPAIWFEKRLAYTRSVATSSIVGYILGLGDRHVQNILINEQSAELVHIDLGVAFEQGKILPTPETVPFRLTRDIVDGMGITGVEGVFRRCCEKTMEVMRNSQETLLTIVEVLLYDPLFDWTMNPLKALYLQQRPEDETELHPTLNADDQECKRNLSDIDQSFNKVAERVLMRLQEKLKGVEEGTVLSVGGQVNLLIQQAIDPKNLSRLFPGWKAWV

Question: Which results are given for `CN(C)CCCOc1ccc(-c2ccc3ncc4c(c3c2)n([C@H]2C[C@@H](O)C2)c(=O)n4C)cn1`?
Answer: pIC50 [1]: < 4.52; pIC50 [2]: 9.62

Question: `CN(C)CCCOc1ccc(-c2cc3c(cc2F)ncc2c3n([C@H]3CCCOC3)c(=O)n2C)cn1` was tested. Which pIC50 [1] did it give?
Answer: < 4.53

Question: And the pIC50 [2]?
Answer: 8.94

Question: With `CN(C)CCCOc1ccc(-c2ccc3ncc4c(c3c2)n(C2COC2)c(=O)n4C)cn1` as the compound, how does the pIC50 [1] read?
Answer: < 4.52

Question: What about the pIC50 [2] of the same compound?
Answer: 8.84

Question: With `CN(C)CCCOc1ccc(-c2cc3c(cc2F)ncc2c3n([C@@H]3CCCOC3)c(=O)n2C)cn1` as the compound, how does the pIC50 [1] read?
Answer: < 4.52

Question: And the pIC50 [2]?
Answer: 9.00
